From patent US6894073B2, “Use of diterpene compound as a therapeutic agent of inflammation, immune disease or cancer” (Korea Research Institute of Bioscience and Biotechnology, priority 2000, dated 2005)

Experiments:
nitric oxide (NO) = test: Inhibition of NO production (nitrite, Griess reagent) in LPS-stimulated Raw 264.7 macrophage cells; assay type: cell-based, murine; conditions: for NO: 1 μg/ml LPS, 24 hours; for IC50: LPS-stimulated Raw 264.7 cells; for inhibition at 0.03 µg/mL / inhibition at 0.3 µg/mL / inhibition at 3 µg/mL: read-out: Inhibition rate (%) of NO production
Experimental: (§1) To investigate whether kaurane diterpene compounds obtained in Example 1 can inhibit the production of nitric oxide (NO) which induces apoptosis of the immune and neuron cells, the present inventors measured the amount of nitrite (NO2) accumulated in the culture medium of LPS-stimulated murine macrophage cells, which were treated with four kaurane diterpene compounds, kamebanin, kamebacetal A, kamebakaurin, or exisanin A.
In detail, Raw 264.7 murine macrophage cells (ATCC TIB-71) in DMEM medium were seeded to 96-well plate at a cell density of 1×10^5 cells/well and incubated for 3 hours at 37° C., 5% CO2 incubator. To induce NO synthesis in the macrophage cell, 1 μg/ml of LPS and 3 μg/ml, 0.3 μg/ml, and 0.03 μg/ml of kaurane diterpene compounds of the present invention were added to the medium and the plate was incubated for 24 hours. The amount of NO2, the final oxidation product of NO induced by the LPS in the medium was measured as followed. After collecting and centrifuging incubated medium, 100 μl of Griess reagent was added into 100 μl of each culture medium. Then, the medium was incubated for ten minutes at room temperature and absorbance at 550 nm wavelength was measured. Griess reagent was prepared by mixing a solution, wherein 1% sulfanilamide was dissolved in 5% phosphoric acid, and a solution of 0.1% naphyhylethylenediamine-HCl by a 1:1 ratio. To measure the amount of standard NO synthesis, NaNO2 was serially diluted and the absorbance was measured after reacting it with Griess reagent. From this, the standard curve for the amount of NO production was obtained. The amount of NO production in the culture medium treated with each compound was estimated using standard curve for NO determination.

prostaglandin E2 = test: Inhibition of prostaglandin E2 production in LPS-stimulated Raw 264.7 cells (enzyme immunometric assay); assay type: cell-based, murine; conditions: for PGE2: 1 μg/ml LPS, 16 hours; for inhibition at 0.03 µg/mL / inhibition at 0.3 µg/mL / inhibition at 3 µg/mL / IC50: Mus musculus, RAW264.7; for inhibition at 0.03 µg/mL / inhibition at 0.3 µg/mL / inhibition at 3 µg/mL: read-out: Inhibition rate (%) of prostaglandin E2 production; for IC50: LPS-stimulated Raw 264.7 cells
Experimental: as §1, with “prostaglandin,” for “nitric oxide (NO)”, “inflammatory reaction,” for “apoptosis of the immune and neuron cells,”, “prostaglandin E2” for “nitrite (NO2)”
In detail, Raw 264.7 cells in DMEM medium were seeded to a 96-well plate at a cell density of 1×10^5 cells/well and were incubated for 18 hours. Cyclooxygenase-1, the constitutive rate-determining enzyme of the prostaglandin synthesis was inactivated by incubating for 3 hrs with 500 μM of aspirin and each well was washed two times with PBS (phosphate-buffered saline). To each well were added 1 μg/ml of LPS and 3 μg/ml, 0.3 μg/ml, and 0.03 μg/ml concentrations of kaurane diterpene compounds of the present invention and was incubated for 16 hours. After collecting supernatant by centrifugation, the amount of prostaglandin in the culture medium was quantified by enzyme immunometric assay.

TNF-α = test: Inhibition of TNF-α production in LPS-stimulated Raw 264.7 cells (enzyme immunometric assay); assay type: cell-based, murine; conditions: for TNF-α: 1 μg/ml LPS, 16 hours; for inhibition at 0.03 µg/mL / inhibition at 0.3 µg/mL / inhibition at 3 µg/mL / IC50: Mus musculus, RAW264.7; for inhibition at 0.03 µg/mL / inhibition at 0.3 µg/mL / inhibition at 3 µg/mL: read-out: Inhibition rate (%) of TNF-α production; for IC50: LPS-stimulated Raw 264.7 cells
Experimental: To investigate whether kaurane diterpene compounds obtained in Example 1 can inhibit effectively the production of tumor necrosis factor-α (TNF-α), one of the inflammatory mediator, which confers cytotoxic effect and induces the production of prostaglandin and cytokines, the present inventors measured the amount of TNF-α accumulated in the culture medium of LPS-stimulated murine macrophage cells, which were treated with four kaurane diterpene compounds, kamebanin, kamebacetal A, kamebakaurin, or exisanin A.
In detail, Raw 264.7 cells in DMEM medium were seeded to a 96-well plate at a cell density of 1×10^5 cells/well and were incubated for 3 hours at 37° C. in a 5% CO2 incubator. To each well were added 1 μg/ml of LPS and 3 μg/ml, 0.3 μg/ml, and 0.03 μg/ml concentrations of kaurane diterpene compounds of the present invention and was incubated for 16 hours. After collecting supernatant by centrifugation, the amount of TNF-α in the culture medium was quantified by enzyme immunometric assay.

NF-κB = NF-κB activation, SEAP reporter in LPS-stimulated RAW-NF-AP cells; assay type: cell-based, murine; conditions: for inhibition at 0.03 µg/mL / inhibition at 0.3 µg/mL / inhibition at 3 µg/mL / IC50: Mus musculus; for inhibition at 0.03 µg/mL: 0.03 μg/ml compound; for inhibition at 0.03 µg/mL / inhibition at 0.3 µg/mL / inhibition at 3 µg/mL: 1 μg/ml LPS, 16 hours; for inhibition at 0.3 µg/mL: 0.3 μg/ml compound; for inhibition at 3 µg/mL: 3 μg/ml compound; for IC50: RAW-NF-AP cells, LPS
Experimental: RAW-NF-AP cells, which can be used effectively to detect the NF-κB dependent expression of reporter gene, (Korean Patent Application No. 1999-0006025), were seeded to a 96-well plate at a cell density of 1×10^5 cell/well and were incubated for 3 hours at 37° C. in a 5% CO2 incubator. Thereafter, 1 μg/ml concentration of LPS and 0.03 μg/ml, 0.3 μg/ml, and 3 μg/ml concentrations of kaurane diterpene compounds of the present invention were added to each well and was incubated for 16 hours. After collecting supernatant by centrifugation, the amount of secreted alkaline phosphatase (SEAP) in the culture medium of which expression is regulated by the activation of NF-κB was quantified.

adjuvant arthritis model = test: Adjuvant arthritis model, paw volume; assay type: in vivo, Sprague-Dawley rat; conditions: day 16-22, paw volume on 23rd day
Experimental: Finding the inhibitory effect of kaurane diterpene compounds on the production of NO, prostaglandin, and TNF, and on the activation of NF-κB in the murine macrophage cells stimulated by LPS, the present inventors investigated the pharmacological efficacy of kaurane diterpene compounds with a adjuvant arthritis model according to the method of Futaki et al. (General Pharmacology, 1993, 24, 105-110). To prepare animal model of the arthritis, 0.05 ml of 0.1% Mycobacterium butyricum suspended in Freud adjuvant (Sigma, USA) was injected intradermally to the left hind paw of the male Sprague-Dawley rat of 180 g weight. On the fifteenth day after injection, the volume of the right paw of the rats was measured using plethysmometer (Ugo-Basile, Italy), and only the rats having arthritis on the right leg were selected. Thereafter, the selected rats were divided into four groups, six rats per each group. Four kinds of kaurane diterpene compounds of the present invention were administered orally to each groups everyday from the sixteenth day to twenty-second day with doses of 3 mg/kg/day, 10 mg/kg/day, and 20 mg/kg/day in the form of the suspended solution with 0.1% methylcellulose. The inhibition rate of arthritis was calculated by comparing the volume of the paw with that of the control on the 23rd day.

[1] = Mus musculus, RAW264.7, 0.03 μg/ml compound
[2] = Mus musculus, RAW264.7, 0.3 μg/ml compound
[3] = Mus musculus, RAW264.7, 3 μg/ml compound

Structure (SMILES)	NO (nitric oxide (NO); 0.03 μg/ml compound) [µM]	NO (nitric oxide (NO); 0.3 μg/ml compound) [µM]	NO (nitric oxide (NO); 3 μg/ml compound) [µM]	inhibition at 0.03 µg/mL (nitric oxide (NO); [1]) [%]	inhibition at 0.3 µg/mL (nitric oxide (NO); [2]) [%]	inhibition at 3 µg/mL (nitric oxide (NO); [3]) [%]	IC50 (nitric oxide (NO); Mus musculus, RAW264.7) [µM]	PGE2 (prostaglandin E2; 0.03 μg/ml compound) [ng/mL]	PGE2 (prostaglandin E2; 0.3 μg/ml compound) [ng/mL]	PGE2 (prostaglandin E2; 3 μg/ml compound) [ng/mL]	inhibition at 0.03 µg/mL (prostaglandin E2; 0.03 μg/ml compound) [%]	inhibition at 0.3 µg/mL (prostaglandin E2; 0.3 μg/ml compound) [%]	inhibition at 3 µg/mL (prostaglandin E2; 3 μg/ml compound) [%]	IC50 (prostaglandin E2) [µM]	TNF-α (TNF-α; 0.03 μg/ml compound) [pg/mL]	TNF-α (TNF-α; 0.3 μg/ml compound) [pg/mL]	TNF-α (TNF-α; 3 μg/ml compound) [pg/mL]	inhibition at 0.03 µg/mL (TNF-α; 0.03 μg/ml compound) [%]	inhibition at 0.3 µg/mL (TNF-α; 0.3 μg/ml compound) [%]	inhibition at 3 µg/mL (TNF-α; 3 μg/ml compound) [%]	also measured
C=C1C(=O)[C@@]23C4CC5C(C)(C)CC[C@H](O)[C@@]5(C(OC)O4)C2CC[C@@H]1[C@H]3O (stereo partly drawn) [Kamebacetal A, kamebacetal A]	38.5 ± 4.8	19.9 ± 3.7	3.3 ± 0.7	23.9	64.2	100	0.584	13.2 ± 0.8	9.8 ± 1.4	2.7 ± 0.4	-11.3	19.6	85.6	2.8	1495.0 ± 239.7	691.4 ± 152.7	38.9 ± 1.0	10.5	59.2	98.7	NO production compared with negative control (no LPS) (nitric oxide (NO); 3 μg/ml): nearly the same as that of the negative control; IC50 (nitric oxide (NO)): 0.58 µM; IC50 (TNF-α): 0.6 µM; SEAP activity compared with negative control (no LPS) (NF-κB; 3 μg/ml): to the extent of negative control; inhibition at 0.03 µg/mL (NF-κB): 1.3%; inhibition at 0.3 µg/mL (NF-κB): 62.2%; inhibition at 3 µg/mL (NF-κB): 110%; IC50 (NF-κB): 2.45 µM; Inhibition rate (%) of arthritis (adjuvant arthritis model; 3 mg/kg/day oral): 33 ± 18%; Inhibition rate (%) of arthritis (adjuvant arthritis model; 10 mg/kg/day oral): 55 ± 10%; Inhibition rate (%) of arthritis (adjuvant arthritis model; 20 mg/kg/day oral): 69 ± 14%
C=C1C(=O)[C@@]23[C@H](O)C[C@@H]4C(C)(C)CC[C@H](O)[C@@]4(C)[C@@H]2CC[C@@H]1[C@H]3O [Kamebanin, kamebanin]	23.4 ± 1.3	4.6 ± 0.6	3.6 ± 0.3	56.5	97.2	99.3	0.06	14.4 ± 2.2	4.0 ± 0.3	0.7 ± 0.1	-22.5	73.9	104	0.88	1835.0 ± 158.8	805.6 ± 195.4	19.8 ± 0.7	-10	52.3	99.8	Prostaglandin production compared with negative control (no LPS) (prostaglandin E2; 3 μg/ml): nearly the same as that of the negative control; IC50 (TNF-α): 1 µM; inhibition at 0.03 µg/mL (NF-κB): 0.6%; inhibition at 0.3 µg/mL (NF-κB): 48.5%; inhibition at 3 µg/mL (NF-κB): 99.7%; IC50 (NF-κB): 0.72 µM; Inhibition rate (%) of arthritis (adjuvant arthritis model; 3 mg/kg/day oral): 30 ± 15%; Inhibition rate (%) of arthritis (adjuvant arthritis model; 10 mg/kg/day oral): 50 ± 12%; Inhibition rate (%) of arthritis (adjuvant arthritis model; 20 mg/kg/day oral): 68 ± 14%
